Measured values: patent US11786515B2, “Anesthetic mixtures formulations for local anesthesia, at very low concentration, to be used cold with suitable packaging” (L. MOLTENI & C. DEI FRATELLI ALITTI-SOCIETA′ DI ESERCIZIO …, priority 2018, dated 2023)
Counter-ions that a name gives are not always drawn.

Legend:
[1] = cited from earlier work; for toxic dose: long-acting anesthetics
[2] = Toxic and maximum doses of local anesthetics (state of the art)
Description: The Articaine hydrochloride always belongs to the group of the short-acting local anesthetics.

[3] = combined with a vasoconstrictor such as adrenaline

CCCCN1CCCC[C@H]1C(=O)Nc1c(C)cccc1C [Levobupivacaine hydrochloride]
toxic dose [1]: 2 mg/kg body
maximum volume ([2]; 5 mg/ml solution (0.5%)): 30 mL

CCCNC(C)C(=O)Nc1c(C)csc1C(=O)OC (centres unmarked) [Articaine hydrochloride]
toxic dose / tolerance compared with other short-acting anesthetics ([1]; in vivo): overlapping to that of the lidocaine and mepivacaine

CCCCN1CCCCC1C(=O)Nc1c(C)cccc1C (centres unmarked) [Bupivacaine hydrochloride]
toxic dose [1]: 2 mg/kg body
maximum volume ([2]; 5 mg/ml solution (0.5%)): 30 mL

CCN(CC)CC(=O)Nc1c(C)cccc1C [Lidocaine, Lidocaine hydrochloride]
maximum dosage [1, 3]: 7 mg/kg
maximum dose [1, 3]: 500 mg
maximum volume ([2]; human, in vivo): 15 mL
